According to patent US4200650A, “2-Amino-cyclopent-1-ene-1-thiocarboxylic acid-disulfides to treat noradrenergic malfunctions” (Richter Gedeon Vegyeszeti Gyar Rt., priority 1976, dated 1980):

Key:
dopamine-β-hydroxylase [1] = test: Determination of the noradrenaline content of spleen; assay type: in vivo, male Wistar rats
Experimental: (§1) The dopamine-β-hydroxylase inhibiting effects of the new compounds according to the invention were examined by the following tests:
(§2) The tests were performed on male Wistar rats weighing 150 to 200 g. The dopamine-β-hydroxylase inhibiting effects of the compounds were evaluated by determining the change of noradrenaline, dopamine and adrenaline levels of the cerebrum, heart, spleen and adrenal gland. The serotonine and 5-hydroxy-indolylacetic acid levels of the cerebrum were also determined. The measurements were performed as follows:
(§3) The animals were decapitated, the cerebrum, heart, spleen and adrenal gland were removed quickly, and the organs were frozen by placing them onto a metal sheet cooled with dry ice. The frozen organs were stored for maximum one night at -20° C.
(§4) Determination of the noradrenaline content of heart and spleen
(§5) The organs were weighed in frozen state and then homogenized in 5.0 ml of 0.4 n perchloric acid containing 0.05% of EDTA-Naa and 0.1% of Na2 S2 O5. The homogenized mixtures were centrifuged as described above for the treatment of adrenal gland, the supernatants were decanted, and the pH was adjusted to 8.0±0.1 with a 0.1 molar tris buffer containing 20 g/l of NaOH and 25 g/l of EDTA-Na2. 100 mg of prepared Al2 O3 (Anton et al.: J. Pharm. Ther. 138, 360/1962/) were added to the samples, and the mixtures were shaken mechanically for 20 minutes. Thereafter Al2 O3 was washed with 2×10 ml of distilled water, and noradrenaline was eluted with 1.0 ml of 0.05 n perchloric acid. 0.5 ml samples of the eluate were applied for the determination of noradrenaline. Noradrenaline was determined according to the method of Shellenberger et al. (Anal. Biochem. 39, 356/1971/), with the following modifications of the basic procedure: 0.5 ml of 0.1 molar Na-K-phosphate buffer, containing 9 g/l of EDTA-Na2, were added to 0.5 ml of the eluate, and the catecholamines (noradrenaline in the examination of heart and spleen and noradrenaline and dopamine in the examination of the cerebrum) were oxidized with 0.1 ml of a 0.1 n iodine solution in 5% potassium iodide. After exactly 2 minutes oxidation was stopped by adding 0.25 ml of a 2.5% sodium sulfite solution in 4.4 n aqueous sodium hydroxide to the mixture. 2 minutes after the introduction of the alkaline sulfite solution 0.2 ml of concentrated acetic acid were added to the samples, upon which the pH decreased to 4.4 to 4.5 Thereafter the samples were placed for 5 minutes into a drying oven heated to 100° C., and then the samples were cooled with ice water. The fluorescency of noradrenaline was measured with an OPTON spectrophotometer at wavelengths of 380 nm (excitation) and 490 nm (emission).
(§6) In the tests disulfiram, 2,2-dipyridyl, bis(1-methyl-4-homopiperazinyl-thriocaronyl)-disulfide, sodium diethyldithiocarbamate and N-phenyl-N'-(2-thiazolyl)-thiourea were applied as reference substances. The values indicated in Table 1 are the percentages in relation to the amine levels of the controls measured in the same tests (± standard error). The statistical calculations were performed on a TPA/i type computer, using Student's t test.

dopamine-β-hydroxylase [2] = test: Determination of the noradrenaline content of heart; assay type: in vivo, male Wistar rats; conditions: ± standard error
Experimental: as §1, §2, §3, §4, §5, §6

dopamine-β-hydroxylase [3] = test: Determination of noradrenaline and dopamine levels of brain (dopamine-β-hydroxylase inhibiting effect); assay type: in vivo, male Wistar rats; conditions: ± standard error
Experimental: as §1, §2, §3
Determination of the noradrenaline, dopamine, serotonine and 5-hydroxy-indolylacetic acid contents of brain
The brains were homogenized in 10 parts by volume of 0.4 n perchloric acid. The homogenized mixture was stored at -20° C. overnight, thereafter it was thawed and centrifuged as described above. A sample of the homogenized mixture corresponding to 0.5 g of brain was removed, the pH of the sample was adjusted to 8.0±0.1 with 0.1 molar tris-buffer of the above composition, and the sample was processed as described above for the determination of the noradrenaline content of heart and spleen, with the difference that 1.5 ml of 0.05 n perchloric acid were applied as eluting agent. 0.5 ml of the eluate were applied to determine the noradrenaline and dopamine contents. The measurement was performed as described above, with the difference that samples of 0.5 ml were applied for the recording of the fluorescency of noradrenaline. The residua was placed for 50 minutes into a drying oven heated to 100° C., thereafter the sample was cooled with ice water, and the fluorescency of dopamine was recorded at wavelengths of 325 nm (excitation) and 380 nm (emission).
In a further test series the serotonine and 5-hydroxy-indolylacetic acid contents were also determined, beside the determination of the noradrenaline and dopamine content, from the same sample. In this instance the brains were homogenized in 10 ml of 75% ethanol, 0.2 ml of EDTA-Na2 and 5% of ascorbic acid were added to the homogenized mixtures, and the homogenized mixtures were maintained at -20° C. overnight. The mixtures were centrifuged as described above, and 5.0 ml samples of the supernatant were removed. The samples were diluted with equal volumes of distilled water, and poured onto ion exchange columns of 0.5×1.5 cm dimensions, filled with buffered Amberlite CG-30 (200 to 400 mesh). The columns were washed with 5 ml of distilled water followed by 1.0 ml of 0.2 n hydrochloric acid, and the first effluent and the aqueous wash were collected for the determination of 5-hydroxy-indolylacetic acid. Elution was continued with further 1.2 ml of 0.2 n hydrochloric acid in order to remove noradrenaline, dopamine and serotonine. Samples of 0.3 ml were used for the determinations.
Noradrenaline and dopamine were determined by the method of Shellenberger, modified as described above, whereas serotonine was determined by the method of Curzon et al. (Brit. J. Pharmacol. 39, 653/1970/). The basic method was modified as follows: A 0.5% solution of ortho-phthal(di)aldehyde in absolute ethanol was diluted with 10 n hydrochloric acid to 50-fold of its original volume, and 0.6 ml of the resulting 0.01% ortho-phthal(di)aldehyde solution were added immediately to 0.5 ml of the serotonine-containing sample. The sample was placed into a hot water bath for 10 minutes, thereafter cooled with tap water, and the fluorescency was recorded at wavelengths of 360 nm (excitation) and 490 nm (emission).
In the tests disulfiram, 2,2-dipyridyl, bis(1-methyl-4-homopiperazinyl-thriocaronyl)-disulfide, sodium diethyldithiocarbamate and N-phenyl-N'-(2-thiazolyl)-thiourea were applied as reference substances. […]

dopamine-β-hydroxylase [4] = test: Determination of the adrenaline content of adrenal gland; assay type: in vivo, male Wistar rats; conditions: ± standard error
Experimental: as §1, §2, §3
Determination of the adrenaline content of adrenal gland
The adrenal glands were freed from fat and homogenized in 3.0 ml of ice-cold 0.4 n perchloric acid. The homogenized mixtures were centrifuged for 10 minutes at 0° C. with a speed of 3200 r.p.m. using a Janetzky K-70 type centrifuge. 0.05 ml samples were taken from the supernatant, and the adrenaline level was determined directly by the method of Laverty et al. (Anal. Biochem. 22, 269/1968/).
as §6

dopamine-β-hydroxylase [5] = conditions: literature, cited from earlier work
[6] = i.p., 200 mg/kg, 4 hours, ± standard error
[7] = i.p., 200 mg/kg, 8 hours, ± standard error

SMILES: CCNC1=C(C(=S)SSC(=S)C2=C(NCC)CCC2)CCC1 [Compound M-6, 2-(N-ethyl)-amino-cyclopent-1-ene-thiocarboxylic acid-disulfide]
- Spleen NA (noradrenaline) level, percentages in relation to the controls (dopamine-β-hydroxylase [1]; i.p., 100 mg/kg, 4 hours, ± standard error): 64.1±7.6%
- Spleen NA (noradrenaline) level, percentages in relation to the controls (dopamine-β-hydroxylase [1]; [6]): 85.0±10.8%
- Spleen NA (noradrenaline) level, percentages in relation to the controls (dopamine-β-hydroxylase [1]; [7]): 86.5±23.5%
- Spleen NA (noradrenaline) level, percentages in relation to the controls (dopamine-β-hydroxylase [1]; p.o., 500 mg/kg, 4 hours, ± standard error): 125.4±12.4%
- Spleen NA (noradrenaline) level, percentages in relation to the controls (dopamine-β-hydroxylase [1]; p.o., 500 mg/kg, 8 hours, ± standard error): 64.6±12.4%
- Heart NA (noradrenaline) level, percentages in relation to the controls (dopamine-β-hydroxylase [2]; i.p., 100 mg/kg, 4 hours): 92.9±3.3%
- Heart NA (noradrenaline) level, percentages in relation to the controls (dopamine-β-hydroxylase [2]; i.p., 200 mg/kg, 4 hours): 97.8±8.8%
- Heart NA (noradrenaline) level, percentages in relation to the controls (dopamine-β-hydroxylase [2]; i.p., 200 mg/kg, 8 hours): 81.3±5.7%
- Heart NA (noradrenaline) level, percentages in relation to the controls (dopamine-β-hydroxylase [2]; p.o., 500 mg/kg, 4 hours): 82.4±8.2%
- Heart NA (noradrenaline) level, percentages in relation to the controls (dopamine-β-hydroxylase [2]; p.o., 500 mg/kg, 8 hours): 97.5±5.6%
- Brain DA (dopamine) level, percentages in relation to the controls (dopamine-β-hydroxylase [3]; i.p., 100 mg/kg, 4 hours): 99.0±5.22%
- Brain NA (noradrenaline) level, percentages in relation to the controls (dopamine-β-hydroxylase [3]; i.p., 100 mg/kg, 4 hours): 41.8±2.3%
- Brain DA (dopamine) level, percentages in relation to the controls (dopamine-β-hydroxylase [3]; i.p., 200 mg/kg, 4 hours): 134.9±5.4%
- Brain NA (noradrenaline) level, percentages in relation to the controls (dopamine-β-hydroxylase [3]; i.p., 200 mg/kg, 4 hours): 34.4±2.6%
- Brain DA (dopamine) level, percentages in relation to the controls (dopamine-β-hydroxylase [3]; i.p., 200 mg/kg, 8 hours): 121.7±6.1%
- Brain NA (noradrenaline) level, percentages in relation to the controls (dopamine-β-hydroxylase [3]; i.p., 200 mg/kg, 8 hours): 34.2±3.5%
- Brain DA (dopamine) level, percentages in relation to the controls (dopamine-β-hydroxylase [3]; p.o., 500 mg/kg, 4 hours): 106.7±3.4%
- Brain NA (noradrenaline) level, percentages in relation to the controls (dopamine-β-hydroxylase [3]; p.o., 500 mg/kg, 4 hours): 83.9±4.8%
- Brain DA (dopamine) level, percentages in relation to the controls (dopamine-β-hydroxylase [3]; p.o., 500 mg/kg, 8 hours): 92.6±4.0%
- Brain NA (noradrenaline) level, percentages in relation to the controls (dopamine-β-hydroxylase [3]; p.o., 500 mg/kg, 8 hours): 73.7±4.7%
- Adrenal gland AD (adrenaline) level, percentages in relation to the controls (dopamine-β-hydroxylase [4]; i.p., 100 mg/kg, 4 hours): 123.4±4.6%
- Adrenal gland AD (adrenaline) level, percentages in relation to the controls (dopamine-β-hydroxylase [4]; i.p., 200 mg/kg, 4 hours): 97.3±4.1%
- Adrenal gland AD (adrenaline) level, percentages in relation to the controls (dopamine-β-hydroxylase [4]; i.p., 200 mg/kg, 8 hours): 79.0±3.9%
- Adrenal gland AD (adrenaline) level, percentages in relation to the controls (dopamine-β-hydroxylase [4]; p.o., 500 mg/kg, 4 hours): 121.4±13.7%
- Adrenal gland AD (adrenaline) level, percentages in relation to the controls (dopamine-β-hydroxylase [4]; p.o., 500 mg/kg, 8 hours): 107.5±8.9%

SMILES: C=CCNC1=C(C(=S)SSC(=S)C2=C(NCC=C)CCC2)CCC1 [Compound M-7, 2-(N-allyl)-amino-cyclopent-1-ene-thiocarboxylic acid-disulfide]
- Spleen NA (noradrenaline) level, percentages in relation to the controls (dopamine-β-hydroxylase [1]; [6]): 66.1±18.1%
- Spleen NA (noradrenaline) level, percentages in relation to the controls (dopamine-β-hydroxylase [1]; [7]): 88.5±33.9%
- Heart NA (noradrenaline) level, percentages in relation to the controls (dopamine-β-hydroxylase [2]; i.p., 200 mg/kg, 4 hours): 100.0±3.9%
- Heart NA (noradrenaline) level, percentages in relation to the controls (dopamine-β-hydroxylase [2]; i.p., 200 mg/kg, 8 hours): 91.8±3.7%
- Brain DA (dopamine) level, percentages in relation to the controls (dopamine-β-hydroxylase [3]; i.p., 200 mg/kg, 4 hours): 123.6±8.1%
- Brain NA (noradrenaline) level, percentages in relation to the controls (dopamine-β-hydroxylase [3]; i.p., 200 mg/kg, 4 hours): 50.5±5.2%
- Brain DA (dopamine) level, percentages in relation to the controls (dopamine-β-hydroxylase [3]; i.p., 200 mg/kg, 8 hours): 104.7±5.7%
- Brain NA (noradrenaline) level, percentages in relation to the controls (dopamine-β-hydroxylase [3]; i.p., 200 mg/kg, 8 hours): 64.5±4.4%
- Adrenal gland AD (adrenaline) level, percentages in relation to the controls (dopamine-β-hydroxylase [4]; i.p., 200 mg/kg, 4 hours): 93.3±8.0%
- Adrenal gland AD (adrenaline) level, percentages in relation to the controls (dopamine-β-hydroxylase [4]; i.p., 200 mg/kg, 8 hours): 69.8±6.8%

SMILES: CN1CCCN(C(=S)SSC(=S)N2CCCN(C)CC2)CC1 [FLA-63, bis(1-methyl-4-homopiperazinyl)-thiocarbonyl-disulfide, reference compound]
- Spleen NA (noradrenaline) level, percentages in relation to the controls (dopamine-β-hydroxylase [1]; i.p., 50 mg/kg, 4 hours): 58%
- Heart NA (noradrenaline) level, percentages in relation to the controls (dopamine-β-hydroxylase [2]; i.p., 50 mg/kg, 4 hours): 96%
- Brain DA (dopamine) level, percentages in relation to the controls (dopamine-β-hydroxylase [3]; i.p., 50 mg/kg, 4 hours): 118%
- Brain NA (noradrenaline) level, percentages in relation to the controls (dopamine-β-hydroxylase [3]; i.p., 50 mg/kg, 4 hours): 24.6%
- dopamine-β-hydroxylase inhibition under in vivo conditions, in words (dopamine-β-hydroxylase [5]; in vivo): one of the most potent dopamine-β-hydroxylase inhibitors under in vivo conditions
- Adrenal gland AD (adrenaline) level, percentages in relation to the controls (dopamine-β-hydroxylase [4]; i.p., 50 mg/kg, 4 hours): 43%

SMILES: CCCCc1ccc(C(=O)O)nc1 [Fusaric acid, 5-butyl-picolinic acid]
- dopamine-β-hydroxylase inhibiting effects, in words (dopamine-β-hydroxylase [5]): strong dopamine-β-hydroxylase inhibiting effects

SMILES: NNc1nncc2ccccc12 [Hydralazine]
- dopamine-β-hydroxylase inhibiting effects, in words (dopamine-β-hydroxylase [5]): possess dopamine-β-hydroxylase inhibiting effects

SMILES: O=C(CO)c1coc(=O)c2c(O)cccc12 [Oosponol]
- dopamine-β-hydroxylase inhibiting effects, in words (dopamine-β-hydroxylase [5]): strong dopamine-β-hydroxylase inhibiting effects

SMILES: CC(N)Cc1ccccc1 (stereo not drawn) [amphetamine]
- dopamine-β-hydroxylase inhibiting effects, in words (dopamine-β-hydroxylase [5]): possess dopamine-β-hydroxylase inhibiting effects

SMILES: NNCc1ccccc1 [benzylhydrazine]
- dopamine-β-hydroxylase inhibiting effects, in words (dopamine-β-hydroxylase [5]): exert dopamine-β-hydroxylase inhibiting effects
- duration of activity, in words (dopamine-β-hydroxylase [5]): exert their activities for a short period

SMILES: NOCc1ccccc1 [benzyloxyamine]
- dopamine-β-hydroxylase inhibiting effects, in words (dopamine-β-hydroxylase [5]): exert dopamine-β-hydroxylase inhibiting effects
- duration of activity, in words (dopamine-β-hydroxylase [5]): exert their activities for a short period

SMILES: CCN(CC)C(=S)S [diethyl dithiocarbamate]
- dopamine-β-hydroxylase inhibiting effects, in words (dopamine-β-hydroxylase [5]): strong dopamine-β-hydroxylase inhibiting effects

SMILES: Cn1cc[nH]c1=S [methimazol]
- dopamine-β-hydroxylase inhibiting effects, in words (dopamine-β-hydroxylase [5]): possess dopamine-β-hydroxylase inhibiting effects
